The results in this text go back to US11427558B1, “Indazoles and azaindazoles as LRRK2 inhibitors” (ESCAPE Bio, Inc., priority 2019, dated 2022).

The target in test [1] is Recombinant wild type LRRK2 protein (Homo sapiens (Human), UniProt Q5S007). In words: LRRK2 kinase activity, LanthaScreen TR-FRET assay (wild type). It is filed as biochemical. The conditions noted are these: LRRKtide 400 nM, 25 μM ATP, 60 min; read-out: LRRK2 WT IC50. In outline:
(§1)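 Recombinant human wild-type or G2019S LRRK2 phosphorylated fluorescein-labelled LRRKtide (ERM-based) with ATP and serially diluted compound for 60 min at room temperature.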
(Time-resolved FRET reads energy transfer from a long-lived donor to a nearby acceptor.)

In test [2] the target is Recombinant G2019S-LRRK2 protein (Homo sapiens (Human), UniProt Q5S007, G2019S). In words: LRRK2 kinase activity, LanthaScreen TR-FRET assay (G2019S). As to conditions: LRRKtide 400 nM, 25 μM ATP, 60 min. It is filed as biochemical. In outline:
as §1

Chain of Recombinant G2019S-LRRK2 protein (Q5S007 whole entry G2019S): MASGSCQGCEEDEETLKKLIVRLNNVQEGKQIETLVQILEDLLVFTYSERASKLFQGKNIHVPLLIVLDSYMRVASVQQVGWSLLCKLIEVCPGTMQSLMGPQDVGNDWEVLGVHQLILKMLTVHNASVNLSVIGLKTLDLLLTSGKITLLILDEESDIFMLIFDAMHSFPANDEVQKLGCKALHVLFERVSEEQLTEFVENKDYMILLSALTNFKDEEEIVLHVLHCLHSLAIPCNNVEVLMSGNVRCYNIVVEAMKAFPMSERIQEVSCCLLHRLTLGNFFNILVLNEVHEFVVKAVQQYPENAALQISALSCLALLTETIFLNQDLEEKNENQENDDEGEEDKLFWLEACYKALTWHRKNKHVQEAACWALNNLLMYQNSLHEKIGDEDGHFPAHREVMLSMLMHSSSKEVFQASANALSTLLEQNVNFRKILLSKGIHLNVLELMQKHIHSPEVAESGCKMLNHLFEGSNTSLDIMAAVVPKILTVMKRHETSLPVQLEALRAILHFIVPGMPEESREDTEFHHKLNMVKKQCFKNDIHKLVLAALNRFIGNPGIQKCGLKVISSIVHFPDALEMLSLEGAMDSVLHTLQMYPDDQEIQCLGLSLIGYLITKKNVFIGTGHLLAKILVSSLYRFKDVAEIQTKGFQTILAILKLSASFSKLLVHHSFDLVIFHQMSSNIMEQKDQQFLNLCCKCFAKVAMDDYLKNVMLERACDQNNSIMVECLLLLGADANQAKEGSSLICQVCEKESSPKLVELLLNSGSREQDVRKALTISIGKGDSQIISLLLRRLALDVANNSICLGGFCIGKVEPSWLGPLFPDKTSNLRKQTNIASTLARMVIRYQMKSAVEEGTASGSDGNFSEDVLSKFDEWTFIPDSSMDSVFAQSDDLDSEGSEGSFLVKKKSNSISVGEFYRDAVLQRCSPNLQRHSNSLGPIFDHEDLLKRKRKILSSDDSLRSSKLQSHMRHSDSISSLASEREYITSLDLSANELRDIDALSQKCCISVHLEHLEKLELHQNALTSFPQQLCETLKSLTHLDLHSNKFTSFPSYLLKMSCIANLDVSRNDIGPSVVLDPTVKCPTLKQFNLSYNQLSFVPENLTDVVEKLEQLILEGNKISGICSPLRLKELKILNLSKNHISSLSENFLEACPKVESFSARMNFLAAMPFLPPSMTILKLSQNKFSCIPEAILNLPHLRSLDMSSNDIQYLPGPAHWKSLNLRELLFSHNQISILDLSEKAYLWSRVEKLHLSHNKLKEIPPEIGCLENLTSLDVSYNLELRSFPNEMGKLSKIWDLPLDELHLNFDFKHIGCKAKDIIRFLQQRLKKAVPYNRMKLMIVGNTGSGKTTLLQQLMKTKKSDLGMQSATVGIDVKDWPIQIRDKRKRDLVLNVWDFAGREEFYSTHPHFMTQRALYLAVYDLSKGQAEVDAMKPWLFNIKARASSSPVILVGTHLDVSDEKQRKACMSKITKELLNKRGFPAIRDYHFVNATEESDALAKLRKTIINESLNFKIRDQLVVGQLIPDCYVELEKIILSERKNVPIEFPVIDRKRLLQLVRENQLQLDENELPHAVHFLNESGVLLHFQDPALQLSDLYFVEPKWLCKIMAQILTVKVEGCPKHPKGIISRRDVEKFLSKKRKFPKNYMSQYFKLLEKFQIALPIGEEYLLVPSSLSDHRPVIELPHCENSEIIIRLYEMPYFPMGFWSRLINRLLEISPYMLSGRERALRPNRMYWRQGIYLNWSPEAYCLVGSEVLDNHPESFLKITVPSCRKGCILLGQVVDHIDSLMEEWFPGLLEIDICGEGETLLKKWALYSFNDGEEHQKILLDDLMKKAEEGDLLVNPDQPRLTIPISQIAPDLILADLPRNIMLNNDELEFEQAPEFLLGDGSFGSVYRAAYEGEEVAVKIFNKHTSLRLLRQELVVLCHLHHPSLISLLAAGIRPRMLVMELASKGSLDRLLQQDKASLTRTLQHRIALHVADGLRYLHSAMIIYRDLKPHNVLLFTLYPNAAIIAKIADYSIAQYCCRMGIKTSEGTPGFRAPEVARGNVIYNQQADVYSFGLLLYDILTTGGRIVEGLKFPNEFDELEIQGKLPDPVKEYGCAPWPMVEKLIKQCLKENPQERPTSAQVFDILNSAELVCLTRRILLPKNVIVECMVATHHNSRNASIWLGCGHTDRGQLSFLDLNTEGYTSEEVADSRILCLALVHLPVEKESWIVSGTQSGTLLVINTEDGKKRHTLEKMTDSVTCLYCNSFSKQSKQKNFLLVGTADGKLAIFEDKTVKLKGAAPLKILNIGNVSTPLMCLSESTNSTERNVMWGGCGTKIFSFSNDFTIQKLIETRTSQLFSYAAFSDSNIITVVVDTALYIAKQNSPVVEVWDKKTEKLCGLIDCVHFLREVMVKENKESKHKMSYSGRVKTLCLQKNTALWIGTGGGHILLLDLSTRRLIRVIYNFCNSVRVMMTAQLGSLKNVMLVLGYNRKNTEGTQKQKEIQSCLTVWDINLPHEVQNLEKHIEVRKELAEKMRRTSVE
Chain of Recombinant wild type LRRK2 protein (Q5S007 whole entry): as the sequence (Q5S007 whole entry G2019S) above, with S2019G counted along it

As for `Cc1c(C#N)cnc(C(=O)Nc2ccc3[nH]nc(-c4cnco4)c3c2)c1C` [Example 158, 5-Cyano-3,4-dimethyl-N-(3-(oxazol-5-yl)-1H-indazol-5-yl)picolinamide], the IC50 in test [1] and in test [2] was < 100 nM in each case.

Turning to `Cc1c(C#N)cnc(C(=O)Nc2ccc3[nH]nc(-c4cnn(C(C)C)c4)c3c2)c1C` [Example 217, 5-Cyano-N-(3-(1-isopropyl-1H-pyrazol-4-yl)-1H-indazol-5-yl)-3,4-dimethylpicolinamide], the IC50 in test [1] and in test [2] was < 100 nM in each case.

In the case of `Cc1cc(C#N)cnc1C(=O)Nc1ccc2[nH]nc(N3CCC3)c2c1` [Example 253, N-(3-(Azetidin-1-yl)-1H-indazol-5-yl)-5-cyano-3-methylpicolinamide], the IC50 in test [1] was 1000 to 10000 nM; in test [2], 100 to 1000 nM.

As to `Cc1c(C(=O)Nc2ccc3[nH]nc(-c4ccccc4)c3c2)nc(C#N)n1C` [Example 104, 2-Cyano-1,5-dimethyl-N-(3-phenyl-1H-indazol-5-yl)-1H-imidazole-4-carboxamide], the IC50 in test [1] and in test [2] was 100 to 1000 nM each time.

With `N#Cc1cccc(C(=O)Nc2ccc3[nH]nc(-c4ccoc4)c3c2)c1Cl` [Example 86, 2-chloro-3-cyano-N-(3-(furan-3-yl)-1H-indazol-5-yl)benzamide], the IC50 in test [1] and in test [2] was < 100 nM each time.

In the case of `Cc1nn(C)c(C#N)c1C(=O)Nc1ccc2[nH]nc(-c3ccoc3)c2c1` [Example 81, 5-Cyano-N-(3-(furan-3-yl)-1H-indazol-5-yl)-1,3-dimethyl-1H-pyrazole-4-carboxamide], the half-inhibitory concentration (IC50) in test [1] and in test [2] was < 100 nM throughout.

Consider `Cc1c(C#N)cnc(C(=O)Nc2ccc3[nH]nc(/C=C/C4CC4)c3c2)c1C` [Example 233, (E)-5-Cyano-N-(3-(2-cyclopropylvinyl)-1H-indazol-5-yl)-3,4-dimethylpicolinamide], for which the half-maximal inhibitory concentration (IC50) in test [1] and in test [2] was < 100 nM each time.

Consider `COc1ccccc1-c1n[nH]c2ccc(NC(=O)c3ncc(C#N)cc3C)cc12` [Example 99, 5-Cyano-N-(3-(2-methoxyphenyl)-1H-indazol-5-yl)-3-methylpicolinamide], for which the figures for the IC50 in test [1] and in test [2] were 1000 to 10000 nM and 100 to 1000 nM, respectively.

Consider `Cc1c(C#N)cnc(C(=O)Nc2ccc3[nH]nc(C=C4CCOCC4)c3c2)c1C` [Example 262, 5-Cyano-3,4-dimethyl-N-(3-((tetrahydro-4H-pyran-4-ylidene)methyl)-1H-indazol-5-yl)picolinamide], for which the IC50 in test [1] and in test [2] was 1000 to 10000 nM in each case.

As to `N#Cc1cnc(C(=O)Nc2ccc3[nH]nc(-c4ccoc4)c3c2)cc1O` [Example 39, 5-Cyano-N-(3-(furan-3-yl)-1H-indazol-5-yl)-4-hydroxypicolinamide], the IC50 in test [1] and in test [2] was 1000 to 10000 nM throughout.

Take `Cc1cc(C#N)cnc1C(=O)Nc1ccc2[nH]nc(-c3ccc(OC(C)C)nc3)c2c1` [Example 38, 5-Cyano-N-(3-(6-isopropoxypyridin-3-yl)-1H-indazol-5-yl)-3-methylpicolinamide]: the IC50 in test [1] was 100 to 1000 nM; in test [2], < 100 nM.

For the compound `Cc1cc(C#N)cnc1C(=O)Nc1ccc2[nH]nc(-c3cccc(S(C)(=O)=O)c3)c2c1` [Example 34, 5-Cyano-3-methyl-N-(3-(3-(methylsulfonyl)phenyl)-1H-indazol-5-yl)picolinamide], the half-maximal inhibitory concentration (IC50) in test [1] and in test [2] was < 100 nM throughout.

Turning to `COc1cncc(-c2n[nH]c3ccc(NC(=O)c4ncc(C#N)cc4C)cc23)c1` [Example 68, 5-Cyano-N-(3-(5-methoxypyridin-3-yl)-1H-indazol-5-yl)-3-methylpicolinamide], the IC50 is 100 to 1000 nM in test [1] and < 100 nM in test [2].

`Cc1c(C#N)cnc(C(=O)Nc2ccc3[nH]nc(C)c3c2)c1Cl` [Example 326, 3-Chloro-5-cyano-4-methyl-N-(3-methyl-1H-indazol-5-yl)picolinamide]: the IC50 in test [1] is 100 to 1000 nM; in test [2], < 100 nM.

Take `COc1cc(-c2n[nH]c3ccc(NC(=O)c4c(C)c(C#N)nn4C)cc23)ccn1` [Example 194, 3-Cyano-N-(3-(2-methoxypyridin-4-yl)-1H-indazol-5-yl)-1,4-dimethyl-1H-pyrazole-5-carboxamide]: the half-inhibitory concentration (IC50) was 100 to 1000 nM in test [1] and < 100 nM in test [2].

On to `Cc1cc(C#N)cnc1C(=O)Nc1ccc2[nH]nc(-c3cnsc3)c2c1` [Example 160, 5-Cyano-N-(3-(isothiazol-4-yl)-1H-indazol-5-yl)-3-methylpicolinamide], for which the IC50 in test [1] and in test [2] was < 100 nM throughout.

With `Cc1c(C(=O)Nc2ccc3[nH]nc(C(C)C)c3c2)nc(Cl)c(C#N)c1C` [Example 270, 6-Chloro-5-cyano-N-(3-isopropyl-1H-indazol-5-yl)-3,4-dimethylpicolinamide], the 50% inhibitory concentration (IC50) in test [1] and in test [2] was < 100 nM each time.

With `Cc1cc(C#N)ccc1C(=O)Nc1ccc2[nH]nc(C)c2c1` [Example 12, 4-Cyano-2-methyl-N-(3-methyl-1H-indazol-5-yl)benzamide], the concentration for half-maximal inhibition (IC50) in test [1] was 100 to 1000 nM; in test [2] it was < 100 nM.

`COc1cc(-c2n[nH]c3ccc(NC(=O)c4ncc(C#N)c(C)c4C)cc23)cc(C)n1` [Example 219, 5-Cyano-N-(3-(2-methoxy-6-methylpyridin-4-yl)-1H-indazol-5-yl)-3,4-dimethylpicolinamide]: the half-inhibitory concentration (IC50) in test [1] and in test [2] was < 100 nM in each case.

Take `Cc1coc(-c2n[nH]c3ccc(NC(=O)c4ncc(C#N)c(C)c4C)cc23)n1` [Example 197, 5-Cyano-3,4-dimethyl-N-(3-(4-methyloxazol-2-yl)-1H-indazol-5-yl)picolinamide]: the IC50 is 100 to 1000 nM in test [1] and < 100 nM in test [2].

Turning to `N#Cc1cccc(C(=O)Nc2ccc3[nH]nc(-c4cnco4)c3c2)c1Cl` [Example 209, 2-chloro-3-cyano-N-(3-(oxazol-5-yl)-1H-indazol-5-yl)benzamide], the IC50 in test [1] and in test [2] was < 100 nM each time.

As to `Cc1cc(C#N)cnc1C(=O)Nc1ccc2[nH]nc(-c3ccn(C)c(=O)c3)c2c1` [Example 152, 5-cyano-3-methyl-N-(3-(1-methyl-2-oxo-1,2-dihydropyridin-4-yl)-1H-indazol-5-yl)picolinamide], the results for the half-maximal inhibitory concentration (IC50) in test [1] and in test [2] were 1000 to 10000 nM and 100 to 1000 nM, respectively.

For `Cc1c(C(=O)Nc2ccc3[nH]nc(C4CC4)c3c2)nc(Br)c(C#N)c1C` [Example 330, 6-Bromo-5-cyano-N-(3-cyclopropyl-1H-indazol-5-yl)-3,4-dimethylpicolinamide], the IC50 in test [1] and in test [2] was < 100 nM in each case.

Turning to `Cc1cc(C#N)cnc1C(=O)Nc1ccc2[nH]nc(-c3ccc(N4CCN(C)CC4)cc3)c2c1` [Example 45, 5-Cyano-3-methyl-N-(3-(4-(4-methylpiperazin-1-yl)phenyl)-1H-indazol-5-yl)picolinamide], the 50% inhibitory concentration (IC50) in test [1] and in test [2] was < 100 nM each time.

On to `Cc1cc(C#N)cnc1C(=O)Nc1ccc2[nH]nc(-c3cccc(C#N)c3)c2c1` [Example 41, 5-Cyano-N-(3-(3-cyanophenyl)-1H-indazol-5-yl)-3-methylpicolinamide], for which the IC50 in test [1] was 100 to 1000 nM; in test [2], < 100 nM.

The IC50 is the concentration needed to halve the response being measured.
